Source: patent US12215082B1 (priority 2023, dated 2025)

Test system: multidrug-resistant (MDR) strains of Mycobacterium tuberculosis
Test: microbe, parasite or virus in culture
Assay type: cell-based
Conditions: 192 h, read-out: MIC MDR-TB

O=C(C[n+]1ccc(/C=N/O)cc1)c1ccc(F)cc1.[Br-] [Compound 3c, (E)-1-(2-(4-Fluorophenyl)-2-oxoethyl)-4-((hydroxyimino)methyl)pyridin-1-ium bromide]
MIC: 128 µg/mL

O=C(C[n+]1ccc(/C=N/O)cc1)c1ccccc1[N+](=O)[O-].[Br-] [Compound 3e, (E)-4-((Hydroxyimino)methyl)-1-(2-(2-nitrophenyl)-2-oxoethyl)pyridin-1-ium bromide]
MIC: 64 µg/mL

O=C(C[n+]1ccc(/C=N/O)cc1)c1ccccc1.[Br-] [Compound 3a, (E)-4-((Hydroxyimino)methyl)-1-(2-oxo-2-phenylethyl)pyridin-1-ium bromide]
MIC: 64 µg/mL

N#Cc1ccc(C(=O)C[n+]2ccc(/C=N/O)cc2)cc1.[Br-] [Compound 3d, (E)-1-(2-(4-Cyanophenyl)-2-oxoethyl)-4-((hydroxyimino)methyl)pyridin-1-ium bromide]
MIC: 128 µg/mL

O=C(C[n+]1ccc(/C=N/O)cc1)c1ccc(Br)cc1.[Br-] [Compound 3b, (E)-1-(2-(4-Bromophenyl)-2-oxoethyl)-4-((hydroxyimino)methyl)pyridin-1-ium bromide]
MIC: 64 µg/mL
